In ChEMBL document CHEMBL1137511, “Identification of a series of novel derivatives as potent HCV inhibitors by a ligand-based virtual screening optimized procedure” (Bioorg Med Chem, 2007):
pIC50: −log10 of the molar value.

Experiment: Inhibition of HCV genotype 1 polymerase
Design: species or system Hepacivirus hominis

Row | SMILES | pIC50
1 | O=c1c(C2=NS(=O)(=O)c3ccccc3N2)c(O)c2ccccc2n1NCc1cccs1 | 5.63
2 | O=c1c(C2=NS(=O)(=O)c3ccccc3N2)c(O)c2ccccc2n1NCc1ccc(Br)cc1 | 4.98
3 | CC(C)(C)CCNn1c(=O)c(C2=NS(=O)(=O)c3ccccc3N2)c(O)c2ccccc21 | 6.39
4 | Cc1ccccc1CNn1c(=O)c(C2=NS(=O)(=O)c3ccccc3N2)c(O)c2ccccc21 | 5.21
5 | O=c1c(C2=NS(=O)(=O)c3ccccc3N2)c(O)c2ccccc2n1NCc1ccco1 | 5.49
6 | CCCCCNn1c(=O)c(C2=NS(=O)(=O)c3ccccc3N2)c(O)c2ccccc21 | 6.03
7 | O=c1c(C2=NS(=O)(=O)c3ccccc3N2)c(O)c2ccccc2n1NCc1ccccc1Br | 5.17
8 | O=c1c(C2=NS(=O)(=O)c3ccccc3N2)c(O)c2ccccc2n1NCc1cccc(Br)c1 | 5.98
9 | O=c1c(C2=NS(=O)(=O)c3ccccc3N2)c(O)c2ccccc2n1NCc1ccc(Cl)s1 | 5.32

Continued, values first:

Row | pIC50 | SMILES
10 | 6.02 | CCCCNn1c(=O)c(C2=NS(=O)(=O)c3ccccc3N2)c(O)c2ccccc21
11 | 5.81 | O=c1c(C2=NS(=O)(=O)c3ccccc3N2)c(O)c2ccccc2n1NCc1ccoc1
12 | 5.09 | Cc1cccc(CNn2c(=O)c(C3=NS(=O)(=O)c4ccccc4N3)c(O)c3ccccc32)c1
13 | 4.45 | O=c1c(C2=NS(=O)(=O)c3ccccc3N2)c(O)c2ccccc2n1NCc1nccs1
14 | 6.03 | CC(C)CNn1c(=O)c(C2=NS(=O)(=O)c3ccccc3N2)c(O)c2ccccc21
15 | 4.82 | Cc1ccsc1CNn1c(=O)c(C2=NS(=O)(=O)c3ccccc3N2)c(O)c2ccccc21
16 | 6.20 | CC(C)CCNn1c(=O)c(C2=NS(=O)(=O)c3ccccc3N2)c(O)c2ccccc21
